Laboratory results as given in patent publication US20130310256A1, “HERBICIDAL COMPOSITIONS COMPRISING 4-AMINO-3-CHLORO-5-FLUORO-6-(4-CHLORO-2-FLUORO-3-METHOXYPHENYL) PYRIDINE-2-CARBOXYLIC ACID OR A DERIVATIVE THEREOF AND VLCFA AND LIPID SYNTHESIS INHIBITING HERBICIDES” (DOW AGROSCIENCES LLC, priority 2008, published 2013).
Values joined by “and” are separate entries in the source; they are usually repeats but may differ in a detail not shown here. Identical values can stand only once.

Assays:
DIGSA = experiment: Example I: postemergence foliar-applied weed control, greenhouse; format: in vivo, Digitaria sanguinalis (L.) Scop. (large crabgrass); settings: 20 DAA
From the text: (§1) Seeds or nutlets of the desired test plant species were planted in a soil matrix prepared by mixing a loam or sandy loam soil (e.g., 28.6 percent silt, 18.8 percent clay, and 52.6 percent sand, with a pH of about 5.8 and an organic matter content of about 1.8 percent) and calcareous grit in an 80 to 20 ratio. The soil matrix was contained in plastic pots with a volume of 1 quart and a surface area of 83.6 square centimeters (cm^2). When required to ensure good germination and healthy plants, a fungicide treatment and/or other chemical or physical treatment was applied. The plants were grown for 8-22 days in a greenhouse with an approximate 14 hr photoperiod which was maintained at about 29° C. during the day and 26° C. during the night. Nutrients (Peters Excel® 15-5-15 5-Ca 2-Mg and iron chelate) were applied in the irrigation solution as needed and water was added on a regular basis. Supplemental lighting was provided with overhead metal halide 1000-Watt lamps as necessary. The plants were employed for testing when they reached the first through fourth true leaf stage.
(§2) Treatments consisted of the acid or esters of 4-amino-3-chloro-5-fluoro-6-(4-chloro-2-fluoro-3-methoxy-phenyl)pyridine-2-carboxylic acid (Compound A), each formulated as an SC (suspension concentrate), and various herbicidal components alone and in combination. Forms of compound A were applied on an acid equivalent basis.
(§3) Other herbicidal components were applied on an active ingredient basis and included very long chain fatty acid (VLCFA) synthesis-inhibiting and fatty acid/lipid synthesis-inhibiting herbicides acetochlor (technical grade material), acetochlor+dichlormid formulated as Topnotch®, pretilachlor (technical grade material), butachlor formulated as Butachlor EC, fentrazamide formulated as Fentrazamide EC, thiobencarb formulated as Bolero® 8EC, cafenstrole formulated as Himeadow® WP or Lapost® Flowable, benfuresate formulated as Full Shot®, dimethenamid-P formulated as Outlook®, indanofan (technical grade material), flufenacet formulated as Define® DF, mefenacet (technical grade material), S-metolachlor formulated as Dual® II Magnum, pethoxamid formulated as Successor® 600, and pyroxasulfone (technical grade material).
(§4) Treatment requirements were calculated based upon the rates being tested, the concentration of active ingredient or acid equivalent in the formulation, and a 12 mL application volume at a rate of 187 L/ha.
(§5) For treatments comprised of formulated compounds, measured amounts of compounds were placed individually in 25 mL glass vials and diluted in a volume of 1.25% (v/v) Agri-Dex® crop oil concentrated to obtain 12× stock solutions. […] Application solutions were prepared by adding an appropriate amount of each stock solution (e.g., 1 mL) and diluted to the appropriate final concentrations with the addition of 10 mL of an aqueous mixture of 1.25% (v/v) crop oil concentrate so that the final spray solutions contained 1.25+/−0.05% (v/v) crop oil concentrate.
(§6) For treatments comprised of technical compounds, weighed amounts can be placed individually in 25 mL glass vials and dissolved in a volume of 97:3 v/v acetone/DMSO to obtain 12× stock solutions. […] Application solutions can be prepared by adding an appropriate amount of each stock solution (e.g., 1 mL) and diluted to the appropriate final concentrations with the addition of 10 mL of an aqueous mixture of 1.5% (v/v) crop oil concentrate so that the final spray solutions contain 1.25% (v/v) crop oil concentrate. When technical materials are used, the concentrated stock solutions can be added to the spray solutions so that the final acetone and DMSO concentrations of the application solutions are […], respectively. […]

SCPJU [1] = experiment: Example V: field trial, in-water application to transplanted rice, Niigata, Japan; format: in vivo, Scirpus juncoides; settings: 31 DAA, submerged weeds
Experimental: Post and pre-emergence field trials were conducted in Niigata, Japan. Trial sites were located in commercially grown fields of transplanted rice (Oryza sativa, variety: Koshihikari) using standard herbicide small plot research methodology. The trial plot size was 2 meters (m)×2 m with 3 replications. The nursery plants were grown in the greenhouse using practical methods and transplanted into the field at the 2.5-leaf stage on May 7, 2012. The row and in-row spaces were 30 cm and 17 cm, respectively. The crop was grown using normal cultural practices for fertilization, water management and maintenance to ensure good growth of the crop and the weeds.
Treatments consisted of the benzyl ester of 4-amino-3-chloro-5-fluoro-6-(4-chloro-2-fluoro-3-methoxyphenyl)pyridine-2-carboxylic acid (Compound A) formulated as an SC (suspension concentrate) and various herbicidal components alone and in combination. Compound A benzyl ester was applied on an active ingredient basis. […]
Compound A benzyl ester SC was once diluted in 100 mL water in the 200 mL bottle/plot to achieve the desired rates and applied by water injection. […] Visual weed control was scored on a scale of 0 to 100 percent where 0 corresponds to no injury and 100 corresponds to complete kill. […]

IPOHE = experiment: Example I: postemergence foliar-applied weed control, greenhouse; format: in vivo, Ipomoea hederacea Jacq. (ivyleaf morningglory); settings: for Visual Weed Control (%) - 21 DAA IPOHE Obs: foliar; for Visual Weed Control Obs: 20 DAA
From the text: as §1, §2, §3, §4, §5, §6

SCPJU [2] = experiment: as above; format: in vivo, Schoenoplectus juncoides (Roxb.) Palla (Japanese bulrush)

## COc1c(Cl)ccc(-c2nc(C(=O)OCc3ccccc3)c(Cl)c(N)c2F)c1F [Compound A Benzyl Ester, benzyl ester of 4-amino-3-chloro-5-fluoro-6-(4-chloro-2-fluoro-3-methoxy-phenyl)pyridine-2-carboxylic acid]
DIGSA; 4.38 gae/ha
  Visual Weed Control Obs: 50% and 40%
DIGSA; 8.75 gae/ha
  Visual Weed Control Obs: 60% and 40% and 30%
DIGSA; 17.5 gae/ha
  Visual Weed Control Obs: 30%
SCPJU [1]; 100 gai/ha
  Visual Weed Control SCPJU Obs: 87.7%
IPOHE; 4.38 gae/ha
  Visual Weed Control (%) - 21 DAA IPOHE Obs: 0%
  Visual Weed Control Obs: 10%
IPOHE; 8.75 gae/ha
  Visual Weed Control (%) - 21 DAA IPOHE Obs: 10%
  Visual Weed Control Obs: 15%
IPOHE; 17.5 gae/ha
  Visual Weed Control (%) - 21 DAA IPOHE Obs: 30%
  Visual Weed Control Obs: 25%
IPOHE; 17.5 gae/ha, 2nd IPOHE sub-table
  Visual Weed Control (%) - 21 DAA IPOHE Obs: 10%
SCPJU [2]; 4.38 gae/ha
  Visual Weed Control (%) - 21 DAA SCPJU Obs: 40%

## COc1c(Cl)ccc(-c2nc(C(=O)O)c(Cl)c(N)c2F)c1F [Compound A Acid, 4-amino-3-chloro-6-(4-chloro-2-fluoro-3-methoxyphenyl)-5-fluoropyridine-2-carboxylic acid]
DIGSA; 4.38 gae/ha
  Visual Weed Control Obs: 30%
DIGSA; 17.5 gae/ha
  Visual Weed Control Obs: 40%
IPOHE; 4.38 gae/ha
  Visual Weed Control Obs: 0%
IPOHE; 8.75 gae/ha
  Visual Weed Control Obs: 20%
IPOHE; 17.5 gae/ha
  Visual Weed Control Obs: 40%

## CCS(=O)(=O)Oc1ccc2c(c1)C(C)(C)CO2 [Benfuresate, 2,3-dihydro-3,3-dimethyl-5-benzofuranyl ethanesulfonate]
SCPJU [1]; 600 gai/ha
  Visual Weed Control SCPJU Obs: 64.3%

## CCCOCCN(C(=O)CCl)c1c(CC)cccc1CC [Pretilachlor, 2-chloro-N-(2,6-diethylphenyl)-N-(2-propoxyethyl)acetamide]
DIGSA; 37.5 gai/ha
  Visual Weed Control Obs: 0%
DIGSA; 75 gai/ha
  Visual Weed Control Obs: 0%
DIGSA; 150 gai/ha
  Visual Weed Control Obs: 0%

## CCN(CC)C(=O)n1cnc(S(=O)(=O)c2c(C)cc(C)cc2C)n1 [Cafenstrole, N,N-diethyl-3-[(2,4,6-trimethylphenyl)sulfonyl]-1H-1,2,4-triazole-1-carboxamide]
IPOHE; 26.25 gai/ha Himeadow WP
  Visual Weed Control Obs: 0%
IPOHE; 105 gai/ha Himeadow WP
  Visual Weed Control Obs: 30%
IPOHE; 26.25 gai/ha
  Visual Weed Control (%) - 21 DAA IPOHE Obs: 0%
IPOHE; 210 gai/ha, 2nd IPOHE sub-table
  Visual Weed Control (%) - 21 DAA IPOHE Obs: 10%
SCPJU [2]; 26.25 gai/ha
  Visual Weed Control (%) - 21 DAA SCPJU Obs: 0%
SCPJU [2]; 52.5 gai/ha
  Visual Weed Control (%) - 21 DAA SCPJU Obs: 0%
SCPJU [2]; 105 gai/ha
  Visual Weed Control (%) - 21 DAA SCPJU Obs: 0%
